# Experimental data as given in US9120815B2, “Solid state forms of macrocyclic kinase inhibitors” (Tragara Pharmaceuticals, Inc., priority 2010, dated 2015).
# Read-outs that look alike come from different tables or passages of the source.
# Experiments:
# [1] = tested on: HL60; settings: HL60 cell line; cited from earlier work
# [2] = target: JAK V617F (Homo sapiens, UniProt O60674, V617F); settings: in vitro; cited from earlier work
# [3] = tested on: Colo205; settings: Colo205 cell line; cited from earlier work
# [4] = Log P determination by potentiometric titration; type: physicochemical
# Excerpt: Data were collected by potentiometric titration on a Sirius GlpKa instrument using three ratios of octanol:ionic-strength adjusted (ISA) water to generate Log P, Log Pion, and Log D values. The data were refined using Refinement Pro software v2.2. Prediction of Log P values was made using ACD v12 software.
# [5] = Thermodynamic aqueous solubility; type: physicochemical; settings: for solubility at 24 h: 25 °C, thermodynamic from solid; for solubility at 24 h / aqueous solubility: water; for final pH: pH of the aqueous suspension after equilibration; for aqueous solubility: 25° C., 24 hours
# Description: Aqueous solubility was determined by suspending sufficient compound in water to give a maximum final concentration of 210 mg·ml^−1 of the parent free-form of the compound. The suspension was equilibrated at 25° C. for 24 hours then the pH was measured. The suspension was then filtered through a glass fibre C filter into a 96 well plate. The filtrate was then diluted by a factor of 101. Quantitation was by HPLC with reference to a standard solution of approximately 0.1 mg·ml^−1. in DMSO. Different volumes of the standard, diluted and undiluted sample solutions were injected. The solubility was calculated using the peak areas determined by integration of the peak found at the same retention time as the principal peak in the standard injection.
# Analysis was performed on an Agilent HP1 100 series system equipped with a diode array detector and using ChemStation software vB.02.01-SR1.
# [6] = tested on: HEL92.1.7; settings: HEL92.1.7 cell line; cited from earlier work
# [7] = tested on: MV4-11; settings: MV4-11 cell line; cited from earlier work
# [8] = target: JAK2 (Homo sapiens, UniProt O60674); settings: in vitro; cited from earlier work
# Sequence of JAK2 (O60674 whole entry): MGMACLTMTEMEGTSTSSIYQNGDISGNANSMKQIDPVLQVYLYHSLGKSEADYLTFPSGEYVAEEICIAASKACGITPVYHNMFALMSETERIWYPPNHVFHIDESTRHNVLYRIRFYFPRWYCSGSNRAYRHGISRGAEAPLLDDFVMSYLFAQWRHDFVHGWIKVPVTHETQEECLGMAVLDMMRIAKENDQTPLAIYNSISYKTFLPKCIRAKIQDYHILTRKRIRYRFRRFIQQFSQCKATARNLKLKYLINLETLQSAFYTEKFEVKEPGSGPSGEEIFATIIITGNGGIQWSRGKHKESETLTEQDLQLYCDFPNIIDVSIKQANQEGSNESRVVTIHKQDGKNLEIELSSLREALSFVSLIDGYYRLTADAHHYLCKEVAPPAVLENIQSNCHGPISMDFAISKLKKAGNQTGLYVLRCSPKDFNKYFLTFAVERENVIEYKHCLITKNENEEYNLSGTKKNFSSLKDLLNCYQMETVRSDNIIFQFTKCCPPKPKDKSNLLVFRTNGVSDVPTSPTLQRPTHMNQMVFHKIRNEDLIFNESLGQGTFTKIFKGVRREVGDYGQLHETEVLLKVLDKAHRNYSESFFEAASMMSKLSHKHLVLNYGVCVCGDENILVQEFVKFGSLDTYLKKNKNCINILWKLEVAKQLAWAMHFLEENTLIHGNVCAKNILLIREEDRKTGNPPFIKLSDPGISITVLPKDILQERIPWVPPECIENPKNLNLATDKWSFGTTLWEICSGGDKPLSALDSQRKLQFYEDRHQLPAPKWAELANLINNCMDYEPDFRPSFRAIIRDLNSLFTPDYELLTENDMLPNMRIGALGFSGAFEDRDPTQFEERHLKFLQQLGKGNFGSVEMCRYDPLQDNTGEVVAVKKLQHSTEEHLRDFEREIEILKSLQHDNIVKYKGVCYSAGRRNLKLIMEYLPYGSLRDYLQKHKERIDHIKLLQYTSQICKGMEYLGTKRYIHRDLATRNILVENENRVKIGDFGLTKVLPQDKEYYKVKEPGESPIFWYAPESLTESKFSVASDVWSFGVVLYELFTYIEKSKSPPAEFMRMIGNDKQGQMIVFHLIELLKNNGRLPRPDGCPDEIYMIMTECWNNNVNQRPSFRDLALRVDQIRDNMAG
# [9] = Stability in humidity chamber 40° C./75% R.H. (XRPD, HPLC); type: physicochemical
# Description: After 2 days, the solids were isolated by filtration under vacuum at RT to be characterised by XRPD analysis. Each new crystalline solid phase detected was characterised by ^1H NMR and TGA-DSC analyses in order to determine if salt formation had occurred and whether the material was a solvate. At this stage, each salt identified was then analysed by HPLC to determine the chemical purity prior to being stored in the humidity chamber (40° C./75% R.H.) to assess its stability.
# [10] = Gravimetric Vapour Sorption (GVS) at 25° C.; type: physicochemical
# Description: Sorption isotherms were obtained using a SMS DVS Intrinsic moisture sorption analyser, controlled by SMS Analysis Suite software. The sample temperature was maintained at 25° C. by the instrument controls. The humidity was controlled by mixing streams of dry and wet nitrogen, with a total flow rate of 200 ml.min^−1. The relative humidity was measured by a calibrated Rotronic probe (dynamic range of 1.0-100% RH), located near the sample. The weight change, (mass relaxation) of the sample as a function of % RH was constantly monitored by the microbalance (accuracy ±0.005 mg). Typically 5-20 mg of sample was placed in a tared mesh stainless steel basket under ambient conditions. The sample was loaded and unloaded at 40% RH and 25° C. (typical room conditions). A moisture sorption isotherm was performed as outlined below (2 scans giving 1 complete cycle). The standard isotherm was performed at 25° C. at 10% RH intervals over a 0.5-90% RH range. The sample was recovered after completion of the isotherm and re-analysed by XRPD.
# [11] = tested on: DU145; settings: DU145 cell line; cited from earlier work
# [12] = target: T1, FLT3 (Homo sapiens, UniProt P36888); settings: in vitro; cited from earlier work
# T1 sequence (P36888 27-993): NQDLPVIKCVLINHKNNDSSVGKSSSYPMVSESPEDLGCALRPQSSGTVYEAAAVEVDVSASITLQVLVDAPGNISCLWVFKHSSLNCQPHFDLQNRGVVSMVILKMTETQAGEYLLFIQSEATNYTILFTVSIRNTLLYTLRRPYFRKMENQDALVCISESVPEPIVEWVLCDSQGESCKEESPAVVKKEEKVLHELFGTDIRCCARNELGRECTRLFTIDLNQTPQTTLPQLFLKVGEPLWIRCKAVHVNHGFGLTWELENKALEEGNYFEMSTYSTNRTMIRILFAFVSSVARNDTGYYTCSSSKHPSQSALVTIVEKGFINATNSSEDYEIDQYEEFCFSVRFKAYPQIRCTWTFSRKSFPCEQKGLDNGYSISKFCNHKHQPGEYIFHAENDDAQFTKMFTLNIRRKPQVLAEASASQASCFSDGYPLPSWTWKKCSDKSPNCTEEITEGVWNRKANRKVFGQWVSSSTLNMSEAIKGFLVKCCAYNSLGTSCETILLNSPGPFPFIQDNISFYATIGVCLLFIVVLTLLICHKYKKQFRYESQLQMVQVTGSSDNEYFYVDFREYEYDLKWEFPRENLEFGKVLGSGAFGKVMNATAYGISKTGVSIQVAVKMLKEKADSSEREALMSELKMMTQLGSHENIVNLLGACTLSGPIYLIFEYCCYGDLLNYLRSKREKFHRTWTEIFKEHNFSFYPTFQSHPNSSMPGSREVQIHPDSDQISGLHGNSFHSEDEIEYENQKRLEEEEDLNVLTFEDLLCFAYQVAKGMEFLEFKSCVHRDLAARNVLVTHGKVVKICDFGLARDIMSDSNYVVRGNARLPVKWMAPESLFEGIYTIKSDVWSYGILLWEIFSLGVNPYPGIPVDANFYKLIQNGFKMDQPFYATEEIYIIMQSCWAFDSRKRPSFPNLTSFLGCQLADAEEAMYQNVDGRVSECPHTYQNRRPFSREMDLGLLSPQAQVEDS
# [13] = Polymorph screen: maturation in solvents, XRPD; type: physicochemical; settings: for XPRD Characterisation after maturation: 3 days
# Description: An initial polymorphism screen was performed for the fumarate and citrate salts using 10 common class II and III organic solvents (with and without addition of water), plus pure water. […] The samples were subjected to a series of heat/cool cycles (room temp […], 8 hour cycles). After 3 days, the samples were filtered and the solids were characterised by XRPD analysis.
# [14] = Stability study: rate of hydration of anhydrous polymorph in methocel/Tween 80 test medium, XRPD; type: physicochemical; settings: no seeds
# Description: Test medium was prepared by dissolving methocel (4 g) in water (196 mL) to afford a 2% (w/w) solution. After stirring for 12 hours to ensure a homogenous solution is obtained, Tween 80 (800 mg) and water (600 mL) was added and the mixture stirred for an additional 12 hours to homogenise.
# Test medium (30 mL) was added and each sample was maturated at the indicated temperature and condition (−20° C., 4° C., room temperature with stirring and room temperature without stirring). […] The samples were monitored over time by XRPD to determine the rate of hydration of the anhydrous polymorph.
# Test medium (5 mL) was added and each sample was maturated at the indicated temperature and condition (−20° C., 4° C., room temperature with stirring and room temperature without stirring). […] The samples were monitored over time by XRPD to determine the rate of hydration of the anhydrous polymorph.
# [15] = Solid state stability at ambient conditions; type: physicochemical
# [16] = listed as Fumiarate Pattern 2, fumarate
# Sequence of JAK V617F (O60674 whole entry V617F): as the sequence (O60674 whole entry) above, with V617F counted along it
smiles,measurement,setting,value
"CN1C/C=C/CCOc2cccc(c2)-c2ccnc(n2)Nc2cccc(c2)C1 [Compound I, 14-methyl-20-oxa-5,7,14,27-tetraazatetracyclo-[19.3.1.12,6.18,12]heptacosa-1(25),2,4,6,8,10,12(26),16,21,23-decaene]",GI50,[1],< 1000 nM
same,IC50,[2],< 1000 nM
same,GI50,[3],< 1000 nM
same,logD,"[4]; octanol/ionic-strength adjusted (ISA) water, pH 7.4, read-out: Measured LogD7.4",3.34
same,logP,"[4]; octanol/ionic-strength adjusted (ISA) water, octanol:ISA water, read-out: Measured LogP",4.72
same,Measured LogPion,[4]; octanol:ISA water,1.14
same,solubility at 24 h,[5],< 1 µg/mL
same,final pH,[5],8.9
same,aqueous solubility,[5],< 1 µg/mL
same,GI50,[6],< 1000 nM
same,GI50,[7],< 1000 nM
same,IC50,[8],< 1000 nM
same,XRPD stability (40° C./75% R.H.),[9]; 6 weeks,No changes were observed in the humidity
same,HPLC Purity post stability (40° C./75% R.H.),[9]; after 6 weeks in the humidity chamber,purity of Compound I was measured at 97.0% area
same,changes in the XRPD pattern after the GVS experiment,[10],between 0 and 90% relative humidity. No
same,hydration phenomenon in GVS,[10],GVS analysis was carried out at 25 °C No
same,GI50,[11],< 1000 nM
same,IC50,[12],< 1000 nM
"CN1CC=CCCOc2cccc(c2)C2=CC=NC(=Nc3cccc(c3)C1)N2.O=C(O)/C=C/C(=O)O [Fumarate Pattern 2, 14-methyl-20-oxa-5,7,14,27-tetraazatetracyclo-[19.3.1.12,6.18,12]heptacosa-1(25),2,4,6,8,10,12(26),16,21,23-decaene fumarate]",XPRD Characterisation after maturation,"[13]; Acetone, w/ water (5% v/v)",Fumarate Pattern 2
same,XPRD Characterisation after maturation,"[13]; Acetone, w/o water",Fumarate Pattern 2
same,XPRD Characterisation after maturation,"[13]; Acetonitrile, w/ water (5% v/v)",Fumarate Pattern 2
same,XPRD Characterisation after maturation,"[13]; Acetonitrile, w/o water",Fumarate Pattern 2
same,XPRD Characterisation after maturation,"[13]; DCM, w/ water (5% v/v)",Fumarate Pattern 2
same,XPRD Characterisation after maturation,"[13]; DCM, w/o water, RT-50° C. cycles",Fumarate Pattern 2
same,XPRD Characterisation after maturation,"[13]; EtOH, w/ water (5% v/v)",Fumarate Pattern 2
same,XPRD Characterisation after maturation,"[13]; EtOH, w/o water",Fumarate Pattern 2
same,XPRD Characterisation after maturation,"[13]; Ethyl acetate, w/ water (5% v/v)",Fumarate Pattern 1
same,XPRD Characterisation after maturation,"[13]; Ethyl acetate, w/o water",Fumarate Pattern 2
same,XPRD Characterisation after maturation,"[13]; IPA, w/ water (5% v/v)",Fumarate Pattern 2
same,XPRD Characterisation after maturation,"[13]; IPA, w/o water",Fumarate Pattern 2
same,XPRD Characterisation after maturation,"[13]; TBME, w/ water (5% v/v)",Fumarate Pattern 1
same,XPRD Characterisation after maturation,"[13]; TBME, w/o water",Fumarate Pattern 2
same,XPRD Characterisation after maturation,"[13]; THF, w/ water (5% v/v)",Fumarate Pattern 2
same,XPRD Characterisation after maturation,"[13]; THF, w/o water",Fumarate Pattern 2
same,XPRD Characterisation after maturation,"[13]; Toluene, w/ water (5% v/v)",Fumarate Pattern 1
same,XPRD Characterisation after maturation,"[13]; Toluene, w/o water",Fumarate Pattern 2
same,transformation after 3 days of maturation in dried solvents,[13]; dried solvents,No transformation
same,XPRD Characterisation after maturation,"[13]; nitromethane, w/ water (5% v/v)",Fumarate Pattern 2
same,XPRD Characterisation after maturation,"[13]; nitromethane, w/o water",Fumarate Pattern 2
same,XPRD Characterisation after maturation,[13]; pure water,Fumarate Pattern 1
same,Time points where transformation was observed,"[14]; 1 mg/mL, 4° C.",120 h
same,Time points where transformation was observed,"[14]; 1 mg/mL, 20-25° C. (under stirring)",24 h
same,Time points where transformation was observed,"[14]; 1 mg/mL, 20-25° C. (without stirring)",48 h
same,Time points where transformation was observed,"[14]; 1 mg/mL, −20° C.",120 h
same,Time points where transformation was observed,"[14]; 10 mg/mL, 4° C.",No
same,Time points where transformation was observed,"[14]; 10 mg/mL, 20-25° C. (under stirring)",48 h
same,Time points where transformation was observed,"[14]; 10 mg/mL, 20-25° C. (without stirring)",120 h
same,Time points where transformation was observed,"[14]; 10 mg/mL, −20° C.",No
same,solubility at 24 h,[5],29 µg/mL
same,final pH,[5],3.80
same,aqueous solubility,[5],29 µg/mL
same,XPRD stability after 40° C./75% RH 2 weeks,[9]; fumarate,not sensitive to humidity
same,XPRD stability after 40° C./75% RH 2 weeks,"[9]; listed as Fumarate pattern 2, fumarate",no transformation
same,XPRD stability after 40° C./75% RH 2 weeks,"[9]; listed as Fumareate pattern 2, fumarate",No change
same,XPRD stability after 40° C./75% RH 2 weeks,[9]; [16],"crystallinity, and no change was observed after"
same,stability in the solid state,[15],stable
same,changes in the XRPD pattern after the GVS experiment,[10]; fumarate,no transformation
same,changes in the XRPD pattern after the GVS experiment,[10]; [16],between 0 and 90% relative humidity. No
